Among the data in US12331040B2 (Karyopharm Therapeutics Inc., priority 2013, dated 2025) are IC50 values, retold here.

In general, IC50 refers to the concentration that gives 50% inhibition.

Like-named read-outs stand apart in the source and are kept apart here. A value given as a limit tells only on which side of the number the result lay.

Common to all, as to assay: MTT cell proliferation assay
Common to all, as to type: cell-based

In one test the test system is 3T3 cells. The following applies: Mus musculus, NIH3T3, approximately 64-72 hours incubation. Put shortly:
(§1)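 Cytotoxicity was measured by MTT: OD490 of the solubilized formazan after roughly 4 h with MTT reagent, reported as mean percent inhibition relative to the negative control. Test compounds covered eight concentrations between 1 nM and 30 μM, added to 5,000–10,000 cells per well that had attached overnight.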

The subject of a further test is MS751 cells. Particulars: Homo sapiens, MS751, MS751 cells, approximately 64-72 hours incubation. Put shortly: as §1
The next test deals with Z138 cells. The following applies: Homo sapiens, Z-138, Z138 cells, approximately 64-72 hours incubation. In short, it runs like this:
as §1

The mark [1] stands for this setting: read-out: MTT Assay IC50 MS-751.
Where [2] appears, read: read-out: MTT Assay IC50, MS-751.
Setting [3] is: read-out: MTT Assay IC50, Z-138.

Regarding `Nc1ccc(/C=C/C(=O)NCc2cc3cc(-c4ccc(S(=O)(=O)N5CCOCC5)cc4)cc(C(F)(F)F)c3o2)cn1` [Compound 531, (E)-3-(6-aminopyridin-3-yl)-N-((5-(4-(morpholinosulfonyl)phenyl)-7-(trifluoromethyl)benzofuran-2-yl)methyl)acrylamide], the results for the IC50 with 3T3 cells (read-out: MTT Assay IC50 3T3), in the test on MS751 cells (setting [1]) and in the test with Z138 cells (read-out: MTT Assay IC50 Z-138) were 0.1 to 5 µM, under 0.1 µM and 0.1 to 5 µM, respectively.

On to `Nc1ccc(/C=C/C(=O)NCc2cc3cc(-c4ccc(C(=O)N5CCC(F)(F)CC5)cc4F)cc(-c4ccc(C(F)(F)F)cc4)c3o2)cn1` [Compound 749, (E)-3-(6-aminopyridin-3-yl)-N-((5-(4-(4,4-difluoropiperidine-1-carbonyl)-2-fluorophenyl)-7-(4-(trifluoromethyl)phenyl)benzofuran-2-yl)methyl)acrylamide], for which the IC50 with 3T3 cells (read-out: MTT Assay IC50, 3T3) was over 10 µM; in the test on MS751 cells (setting [2]), over 10 µM; in the test on Z138 cells (setting [3]) it was 0.1 to 5 µM.

For `Nc1ccc(/C=C/C(=O)NCc2cc3cc(-c4ccc(C(=O)N5CCC(F)(F)CC5)cn4)cc(C(F)(F)F)c3o2)cc1F` [Compound 676, (E)-3-(4-amino-3-fluorophenyl)-N-((5-(5-(4,4-difluoropiperidine-1-carbonyl)pyridin-2-yl)-7-(trifluoromethyl)benzofuran-2-yl)methyl)acrylamide], the IC50 in the test with 3T3 cells (read-out: MTT Assay IC50, 3T3) is over 10 µM; with MS751 cells (setting [2]), over 10 µM; with Z138 cells (setting [3]), over 10 µM.

As for `Nc1ccc(/C=C/C(=O)NCc2cc3cc(-c4ccc(C(=O)N5CC[C@H](Cl)C5)cn4)cc(C(F)(F)F)c3o2)cn1` [Compound 618, (S,E)-3-(6-aminopyridin-3-yl)-N-((5-(5-(3-chloropyrrolidine-1-carbonyl)pyridin-2-yl)-7-(trifluoromethyl)benzofuran-2-yl)methyl)acrylamide], the concentration for half-maximal inhibition (IC50) was over 10 µM with 3T3 cells (read-out: MTT Assay IC50 3T3), 0.1 to 5 µM in the test on MS751 cells (setting [1]) and 0.1 to 5 µM with Z138 cells (read-out: MTT Assay IC50 Z-138).

In the case of `Nc1ccc(/C=C/C(=O)NCc2cc3cc(-c4ccc(C(=O)N5CCC(F)(F)CC5)cc4)cc(-c4ccc(Cl)cc4F)c3o2)cn1` [Compound 739, (E)-3-(6-aminopyridin-3-yl)-N-((7-(4-chloro-2-fluorophenyl)-5-(4-(4,4-difluoropiperidine-1-carbonyl)phenyl)benzofuran-2-yl)methyl)acrylamide], the IC50 is over 10 µM in the test on 3T3 cells (read-out: MTT Assay IC50, 3T3); 0.1 to 5 µM with MS751 cells (setting [2]); 0.1 to 5 µM in the test with Z138 cells (setting [3]).

For the compound `CN(C)c1ccc(-c2cc(Cl)c3oc(CNC(=O)/C=C/c4ccc(N)nc4)cc3c2)nc1` [Compound 646, (E)-3-(6-aminopyridin-3-yl)-N-((7-chloro-5-(5-(dimethylamino)pyridin-2-yl)benzofuran-2-yl)methyl)acrylamide], the IC50 with 3T3 cells (read-out: MTT Assay IC50 3T3), with MS751 cells (setting [1]) and with Z138 cells (read-out: MTT Assay IC50 Z-138) was over 10 µM in each case.

`Nc1ccc(/C=C/C(=O)NCc2cc3cc(-c4ccc(C(=O)N5CC6(COC6)C5)cc4)cc(C(F)(F)F)c3o2)cn1` [Compound 611, (E)-N-((5-(4-(2-oxa-6-azaspiro[3.3]heptane-6-carbonyl)phenyl)-7-(trifluoromethyl)benzofuran-2-yl)methyl)-3-(6-aminopyridin-3-yl)acrylamide]: the IC50 in the test with 3T3 cells (read-out: MTT Assay IC50 3T3) was over 10 µM; in the test with MS751 cells (setting [1]), under 0.1 µM; with Z138 cells (read-out: MTT Assay IC50 Z-138), under 0.1 µM.

`Nc1ccc(/C=C/C(=O)NCc2cc3cc(-c4ccc(C(=O)N5CC6(C5)CC(F)(F)C6)cn4)cc(C(F)(F)F)c3o2)cn1` [Compound 661, (E)-3-(6-aminopyridin-3-yl)-N-((5-(5-(6,6-difluoro-2-azaspiro[3.3]heptane-2-carbonyl)pyridin-2-yl)-7-(trifluoromethyl)benzofuran-2-yl)methyl)acrylamide]: the IC50 is over 10 µM with 3T3 cells (read-out: MTT Assay IC50, 3T3); 0.1 to 5 µM with MS751 cells (setting [2]); 0.1 to 5 µM with Z138 cells (setting [3]).

For `Nc1ccc(/C=C/C(=O)NCc2cc3cc(-c4ccc(C(=O)N5CCOCC5)nn4)cc(Cl)c3o2)cn1` [Compound 552, (E)-3-(6-aminopyridin-3-yl)-N-((7-chloro-5-(6-(morpholine-4-carbonyl)pyridazin-3-yl)benzofuran-2-yl)methyl)acrylamide], the IC50 in the test with 3T3 cells (read-out: MTT Assay IC50 3T3) was over 10 µM; in the test with MS751 cells (setting [1]), 0.1 to 5 µM; with Z138 cells (read-out: MTT Assay IC50 Z-138) it was 0.1 to 5 µM.

Turning to `CC1(C)C2CN(C(=O)c3ccc(-c4cc(C(F)(F)F)c5oc(CNC(=O)/C=C/c6ccc(N)nc6)cc5c4)nc3)CC21` (stereo not drawn) [Compound 631, (E)-3-(6-aminopyridin-3-yl)-N-((5-(5-(6,6-dimethyl-3-azabicyclo[3.1.0]hexane-3-carbonyl)pyridin-2-yl)-7-(trifluoromethyl)benzofuran-2-yl)methyl)acrylamide], the IC50 with 3T3 cells (read-out: MTT Assay IC50 3T3) is over 10 µM; in the test on MS751 cells (setting [1]), 0.1 to 5 µM; in the test with Z138 cells (read-out: MTT Assay IC50 Z-138), 0.1 to 5 µM.

`Nc1ccc(/C=C/C(=O)NCc2cc3cc(-c4ccc(Oc5ccc(F)nc5)cc4)cc(-c4ccc(F)cc4)c3o2)cn1` [Compound 767, (E)-3-(6-aminopyridin-3-yl)-N-((7-(4-fluorophenyl)-5-(4-((6-fluoropyridin-3-yl)oxy)phenyl)benzofuran-2-yl)methyl)acrylamide]: the IC50 with 3T3 cells (read-out: MTT Assay IC50, 3T3) is over 10 µM; in the test with MS751 cells (setting [2]) it was 0.1 to 5 µM; in the test on Z138 cells (setting [3]), under 0.1 µM.

Consider `COc1cc(-c2ccc(C(=O)N3CCNCC3)cn2)cc2cc(CNC(=O)/C=C/c3ccc(N)nc3)oc12` [Compound 641, (E)-3-(6-aminopyridin-3-yl)-N-((7-methoxy-5-(5-(piperazine-1-carbonyl)pyridin-2-yl)benzofuran-2-yl)methyl)acrylamide], for which the IC50 is over 10 µM with 3T3 cells (read-out: MTT Assay IC50 3T3), under 0.1 µM with MS751 cells (setting [1]) and under 0.1 µM in the test on Z138 cells (read-out: MTT Assay IC50 Z-138).

Take `CN1CCN(C(=O)c2ccc(-c3cc(C(F)(F)F)c4oc(CNC(=O)/C=C/c5ccc(N)nc5)cc4c3)nc2)CC1` [Compound 565, (E)-3-(6-aminopyridin-3-yl)-N-((5-(5-(4-methylpiperazine-1-carbonyl)pyridin-2-yl)-7-(trifluoromethyl)benzofuran-2-yl)methyl)acrylamide]: the IC50 is 0.1 to 5 µM in the test with 3T3 cells (read-out: MTT Assay IC50 3T3), under 0.1 µM with MS751 cells (setting [1]) and under 0.1 µM with Z138 cells (read-out: MTT Assay IC50 Z-138).

On to `CC1(F)CCN(C(=O)c2ccc(-c3cc(C(F)(F)F)c4oc(CNC(=O)/C=C/c5ccc(N)nc5)cc4c3)nc2)C1` (stereo not drawn) [Compound 617, (E)-3-(6-aminopyridin-3-yl)-N-((5-(5-(3-fluoro-3-methylpyrrolidine-1-carbonyl)pyridin-2-yl)-7-(trifluoromethyl)benzofuran-2-yl)methyl)acrylamide], for which the values for the IC50 in the test with 3T3 cells (read-out: MTT Assay IC50 3T3), in the test on MS751 cells (setting [1]) and with Z138 cells (read-out: MTT Assay IC50 Z-138) were over 10 µM, 0.1 to 5 µM and under 0.1 µM, respectively.

Turning to `Nc1ccc(/C=C/C(=O)NCc2cc3cc(-c4ccc(C(=O)N5CCC(F)(F)CC5)cn4)cc(C4CC4)c3o2)cn1` [Compound 659, (E)-3-(6-aminopyridin-3-yl)-N-((7-cyclopropyl-5-(5-(4,4-difluoropiperidine-1-carbonyl)pyridin-2-yl)benzofuran-2-yl)methyl)acrylamide], the IC50 in the test on 3T3 cells (read-out: MTT Assay IC50, 3T3) is over 10 µM; in the test with MS751 cells (setting [2]), 0.1 to 5 µM; in the test with Z138 cells (setting [3]), 0.1 to 5 µM.

Take `Nc1ccc(/C=C/C(=O)NCc2coc3c(Cl)cc(-c4ccc(C(=O)N5CCC(F)(F)CC5)cn4)cc23)cn1` [Compound 766, (E)-3-(6-aminopyridin-3-yl)-N-((7-chloro-5-(5-(4,4-difluoropiperidine-1-carbonyl)pyridin-2-yl)benzofuran-3-yl)methyl)acrylamide]: the IC50 in the test with 3T3 cells (read-out: MTT Assay IC50, 3T3) was in the range of 5 to 10 µM; with MS751 cells (setting [2]), 0.1 to 5 µM; with Z138 cells (setting [3]), 0.1 to 5 µM.
